Entries after “also recorded” stand apart in the source; their conditions may differ.
Assays:
[1] = test system: bloodstream form Trypanosoma brucei; assay: Alamar Blue in vitro cytotoxicity assay, T. brucei SM; format: cell-based; conditions: for IC50: 72 hour Alamar Blue, mean ± SD, three biological replicates; for T. brucei more sensitive than human cells (selectivity range): compared with MCF10A and BJ3 human cell lines
Experimental: (§1) For proliferation assays, T. brucei SM was treated with inhibitors, and densities were determined using a Neubauer haemocytometer. Growth curves were repeated minimally in triplicate. For wash-out assays, T. brucei SM was treated with various concentrations of inhibitors. After two hours the cells were washed, resuspended in drug free HMI-9 medium, and cell proliferation was monitored using a haemocytometer. For the Alamar Blue in vitro cytotoxicity assay, 200 μl samples of T. brucei SM cells (2 x 10^3 cells ml^-1) were plated in 96 well plates, and incubated for 72 hours with two fold serial dilutions of the inhibitors. At 72 hours, 20 μl of Resazurin (0.125 mg ml^-1) (Sigma) was added, and the parasites were incubated for a further 18 hours. Fluorescence was measured using a Tecan infinite plate reader (excitation at 530 nm, emission at 585 nm). The change in fluorescence (minus the chemical only control) was plotted as a function of the concentration of chemical compound using the sigmoidal dose-response (variable slope) algorithm using GraphPad Prism version 5.

[2] = test system: Expression Site Body (ESB) and nucleolus of T. brucei; assay: Immunofluorescence microscopy of ESB, VEX1 foci and nucleolus; format: cell-based, Trypanosoma brucei; conditions: for cells with an ESB / ESB positive cells: one hour, G1 cells, untreated 64 ± 17%
Experimental: Trypanosomes were fixed in 2% paraformaldehyde, permeabilised with 0.1% NP-40 for 5 minutes at room temperature before incubation for one hour with an antibody against the nucleolar marker L1C6 [47] or anti-myc tag antibody (clone 4A6, EMD Millipore). Slides were subsequently incubated with a goat anti-mouse secondary antibody coupled to Alexa-594 (Molecular Probes), before mounting in Vectashield containing DAPI (Vector Laboratories). Microscopy was performed using a Zeiss Imager.M1 microscope equipped with a Zeiss AxioCam MRm camera and Axio Vision Rel 4.8 software. A Z-stack of images was taken at 200 nm intervals, and the images from the individual channels were processed using Image J software. For quantitation of ESB signal using YFP, VEX1 signal using the anti-myc tag antibody or nucleolar signal using the L1C6 antibody, the exposure time and contrast was uniformly adjusted across all conditions. Quantification of ESB and nucleolar signal was carried out using compressed stacks of all appropriate channels in which the images acquired on the Z-axis were analysed. The ESB and nucleolar status was recorded for a total of approximately 100 cells in G1 (two biological replicates of approximately 50 cells) for each condition.

[3] = test system: MCF10A human breast epithelial cell line; assay: Alamar Blue cytotoxicity assay, MCF10A cells; format: cell-based; conditions: for IC50: 72 hour Alamar Blue, mean ± SD; for T. brucei more sensitive than MCF10A: Alamar Blue IC50s compared; for selectivity index for T. brucei vs MCF10A (Alamar blue): IC50 MCF10A Alamar blue / IC50 T. brucei
Experimental: (§2) For the mammalian cell toxicity assays, either the spontaneously immortalised Michigan Cancer foundation (MCF10A) human breast epithelial cell line was used, or the BJ3 cell line, which is a human foreskin fibroblast cell line immortalized with the h-Tert catalytic subunit of telomerase. Cells were seeded in 96-well plates, and after 48 hours each well was treated in quintuplicate using ten different concentrations of CX-5461, quarfloxin, BMH-21 or suramin. After incubation for 48 hours, the cells were imaged and cell confluence was calculated using an IncuCyte ZOOM (Essen Biosciences). Cell confluence was normalised to a drug vehicle only control which was set to 100%. An Alamar Blue assay was also performed on the MCF10A cell line in the presence of the different Pol I transcription inhibitors. Here the Alamar Blue readout was also normalised to the vehicle only control. Experiments were performed as three biological replicates with the exception of the Incucyte data for MCF10A in the presence of BMH-21 and doxycycline which were obtained in duplicate. The dose response curves and IC50s were calculated using GraphPad Prism.

[4] = test system: BJ3 human foreskin fibroblast cell line; assay: IncuCyte cell confluence assay, BJ3 fibroblasts; format: cell-based; conditions: for IC50: 48 hours IncuCyte, IC50 for cell death, mean ± SD; for selectivity index for T. brucei vs BJ3 human fibroblasts (Incucyte): IC50 BJ3 cell death / IC50 T. brucei
Experimental: as §2
In parallel, the BJ3 human foreskin fibroblast cell line that had been immortalised with hTert (the catalytic subunit of telomerase) was also tested for sensitivity to these compounds [46] (S2 Fig)(S3 Fig). The IC50 values corresponding to either growth arrest or cell death shown in S2 Fig were obtained by observing the cell images (S3 Fig) and determining the point where the specific dose curve plateaus at the higher concentrations. If the cells were morphologically sound, then the dose curve represented growth arrest of the cells. If the cells were dead, then the dose curve represented cell death. The IC50 values for cell death were used to calculate the selectivity index scores.

[5] = test system: MCF10A human breast epithelial cell line; assay: IncuCyte cell confluence proliferation assay, MCF10A cells; format: cell-based; conditions: for IC50: 48 hour IncuCyte, mean ± SD; for selectivity index for T. brucei vs MCF10A (Incucyte): IC50 MCF10A Incucyte / IC50 T. brucei
Experimental: as §2

[6] = test system: T. brucei RPA2 Pol I subunit; assay: Western blot of YFP-RPA2 Pol I subunit; format: cell-based, Trypanosoma brucei; conditions: 3 μM, one hour, T. brucei TY-YFP-RPA2
Experimental: (A) The T. brucei TY-YFP-RPA2 cell line was incubated with various concentrations of BMH-21 for the time indicated in hours. As a control, T. brucei was also incubated with 800 nM of suramin. Lysate from 1 x 10^7 cell equivalents was blotted and probed with anti-TY (BB2) antibody. A band corresponding to T. brucei RPA2 is shown, as well as a Ponceau S stain of the blot to serve as a loading control. Size markers in kiloDaltons (kDa) are indicated. (TIF) Click here for additional data file.

[7] = test system: T. brucei SM; assay: Proliferation assay (growth curves, haemocytometer); format: cell-based, Trypanosoma brucei; conditions: growth over 48 hours
Experimental: as §1

[8] = test system: T. brucei SM; assay: Wash-out assay; format: cell-based, Trypanosoma brucei; conditions: two hours incubation, then wash-out
Experimental: as §1

[9] = test system: Pol I transcription (rDNA and VSG221 ES precursor transcripts); assay: RNA precursor transcript analysis by qRT-PCR; format: cell-based, Trypanosoma brucei
Experimental: RNA transcript analysis was performed using quantitative reverse transcription PCR (qRT-PCR). Total RNA was isolated using the RNeasy kit (Qiagen) and DNase treated with TURBO DNA-free kit (Invitrogen). Reverse transcription was performed using 100 ng RNA as a template for cDNA synthesis using random hexamer primers (Promega) and the Omniscript RT kit (Qiagen). qPCR was performed on the 7500 Fast Real-Time PCR system (Life Technologies) using Brilliant II SYBR Green QPCR Low ROX Master Mix (Agilent Technologies). DNase treated RNA without reverse transcriptase was used as a control. The amplification conditions for each primer pair were optimised, and the primer sequences are listed in S1 Table. Transcript levels were normalised against actin mRNA, and plotted as relative change relative to the zero hour time point.

[10] = test system: T. b. rhodesiense; set-up: method as in PMID 20149544; conditions: similar Alamar Blue assay; read-out: IC50 suramin for T. b. rhodesiense; cited from earlier work

CN(C)CCNC(=O)c1cccn2c(=O)c3cc4ccccc4cc3nc12 [BMH-21]
IC50 [1]: 0.134 ± 0.008 µM
T. brucei more sensitive than human cells (selectivity range) [1]: 3-10 fold
nucleolar structure (L1C6 marker) ([2]; 3 μM): nucleoli fragmenting into multiple foci
cells with an ESB ([2]; 3 μM): 1 ± 1.4%
VEX1 signal (ESB marker) ([2]; 3 μM, three hours): drastically reduced
IC50 [3]: 0.46 ± 0.08 µM
T. brucei more sensitive than MCF10A [3]: 3.4 fold
selectivity index for T. brucei vs MCF10A (Alamar blue) [3]: (3.4x)
IC50 [4]: 1.36 ± 0.22 µM
selectivity index for T. brucei vs BJ3 human fibroblasts (Incucyte) [4]: (10x)
IC50 [5]: 0.622 ± 0.34 µM
selectivity index for T. brucei vs MCF10A (Incucyte) [5]: (4.6x)
degradation of the RPA2 Pol I subunit [6]: we did not see evidence for degradation of the RPA2 Pol I subunit
drug concentration that resulted in suppression of proliferative growth in T. brucei [7]: 300 nM

Cc1cnc(CNC(=O)c2c(=O)c3ccc(N4CCCN(C)CC4)nc3n3c2sc2ccccc23)cn1 [CX-5461]
IC50 ([1]; Trypanosoma brucei): 0.279 ± 0.016 µM
T. brucei more sensitive than human cells (selectivity range) [1]: 25-35 fold
nucleolar structure (L1C6 marker) ([2]; 3 μM): nucleoli fragmenting into multiple foci
cells with an ESB ([2]; 3 μM): 4.5 ± 0.7%
VEX1 signal (ESB marker) ([2]; 3 μM, three hours): drastically reduced
T. brucei more sensitive than MCF10A [3]: 25 fold
IC50 ([3]; Homo sapiens, MCF-10A): 6.89 ± 4.83 µM
selectivity index for T. brucei vs MCF10A (Alamar blue) [3]: (25x)
reversibility of inhibition of T. brucei proliferation [8]: irreversibly
IC50 ([4]; Homo sapiens, Fibroblast): 9.78 ± 0.79 µM
selectivity index for T. brucei vs BJ3 human fibroblasts (Incucyte) [4]: (35x)
IC50 ([5]; Homo sapiens, MCF-10A): 7.84 ± 9.8 µM
selectivity index for T. brucei vs MCF10A (Incucyte) [5]: (28x)
drug concentration that resulted in suppression of proliferative growth in T. brucei [7]: 1000 nM
repression of Pol I transcription ([9]; 1 μM, 15 minutes): specific knockdown of Pol I transcripts

C[C@H]1c2cccc(O)c2C(=O)C2=C(O)[C@]3(O)C(=O)C(C(N)=O)=C(O)[C@@H](N(C)C)[C@@H]3[C@@H](O)[C@@H]21 [Doxycycline, doxycycline]
IC50 ([3]; Homo sapiens, MCF-10A): 50.7 ± 33.8 µM

CN1CCC[C@H]1CCNC(=O)c1cn2c3c(c(N4CCC(c5cnccn5)C4)c(F)cc3c1=O)Oc1cc3ccccc3cc1-2 (some centres unmarked) [Quarfloxin, quarfloxin]
IC50 ([1]; Trypanosoma brucei): 0.155 ± 0.009 µM
T. brucei more sensitive than human cells (selectivity range) [1]: 18-40 fold
ESB positive cells ([2]; 300 nM): 30.5 ± 5%
ESB positive cells ([2]; 1 μM): 7.5 ± 0.7%
nucleolar structure (L1C6 marker) ([2]; 3 μM): nucleoli fragmenting into multiple foci
cells with an ESB ([2]; 3 μM): No cells contained an ESB; also recorded: none of the cells had an ESB
VEX1 signal (ESB marker) ([2]; 3 μM, three hours): drastically reduced
T. brucei more sensitive than MCF10A [3]: 29 fold
IC50 ([3]; Homo sapiens, MCF-10A): 4.44 ± 3.29 µM
selectivity index for T. brucei vs MCF10A (Alamar blue) [3]: (29x)
reversibility of inhibition of T. brucei proliferation [8]: irreversibly
IC50 ([4]; Homo sapiens, Fibroblast): 2.72 ± 0.17 µM
selectivity index for T. brucei vs BJ3 human fibroblasts (Incucyte) [4]: (18x)
IC50 ([5]; Homo sapiens, MCF-10A): 6.24 ± 3.87 µM
selectivity index for T. brucei vs MCF10A (Incucyte) [5]: (40x)
drug concentration that resulted in suppression of proliferative growth in T. brucei [7]: 300 nM
VSG221 precursor transcript reduced by ([9]; 1 μM, 15 minutes): 94.5 ± 1.9%
VSG pseudogene transcript reduced by ([9]; 1 μM, 15 minutes): 92.3 ± 1.6%
pre-rRNA Precursor 1 transcript levels reduced by (primer a) ([9]; 1 μM, 15 minutes): 98.5 ± 0.66%
rRNA Precursor 2 decreased by (primer b) ([9]; 1 μM, 15 minutes): 91.3 ± 2.6%
rRNA Precursors 2 and 3 reduced by (primer pair c) ([9]; 1 μM, 15 minutes): 83.4 ± 2.1%
rRNA Precursors 2 and 3 reduced by (primer pair d) ([9]; 1 μM, 15 minutes): 89.5 ± 2.7%
Pol II derived tubulin precursor transcript level ([9]; 1 μM, fifteen minutes): 129 ± 10.3 % normal

Cc1ccc(C(=O)Nc2ccc(S(=O)(=O)O)c3cc(S(=O)(=O)O)cc(S(=O)(=O)O)c23)cc1NC(=O)c1cccc(NC(=O)Nc2cccc(C(=O)Nc3cc(C(=O)Nc4ccc(S(=O)(=O)O)c5cc(S(=O)(=O)O)cc(S(=O)(=O)O)c45)ccc3C)c2)c1 [Suramin, suramin]
IC50 ([1]; Trypanosoma brucei): 0.063 ± 0.005 µM
nucleolar structure (L1C6 marker) ([2]; 800 nM): did not lead to significant changes in structure of the nucleoli
effect on ESB positive cells ([2]; 800 nM, one to three hours): only a marginal reduction in ESB positive cells
ESB as visualised using epitope tagged VEX1 ([2]; 800 nM, three hours): no specific disintegration of the ESB was observed
IC50 ([3]; Homo sapiens, MCF-10A): 1640 ± 317 µM
IC50 ([4]; Homo sapiens, Fibroblast): 890 ± 127 µM
IC50 ([5]; Homo sapiens, MCF-10A): 1260 ± 90 µM
IC50 [10]: 0.053 µM
effect on Pol I and Pol II derived precursor transcript levels ([9]; 800 nM, 15 minutes): did not lead to reduced levels of any of these transcripts
